Source: patent US20120052130A1, “GPR 119 MODULATORS” (Pfizer Inc., priority 2009, published 2012)

Target: T1, human GPR119 (Homo sapiens, UniProt Q8TDV5)
T1 sequence (Q8TDV5 1-335): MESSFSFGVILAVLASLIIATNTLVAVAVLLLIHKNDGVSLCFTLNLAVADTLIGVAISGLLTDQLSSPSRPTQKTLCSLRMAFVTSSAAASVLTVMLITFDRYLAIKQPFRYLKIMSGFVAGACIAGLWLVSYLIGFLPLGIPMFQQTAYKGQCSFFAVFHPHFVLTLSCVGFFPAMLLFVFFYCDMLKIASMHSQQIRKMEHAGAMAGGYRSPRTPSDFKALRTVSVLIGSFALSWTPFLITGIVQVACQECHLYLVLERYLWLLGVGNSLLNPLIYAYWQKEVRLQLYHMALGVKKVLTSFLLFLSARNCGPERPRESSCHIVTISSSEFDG
Assay: GPR 119 radioligand binding assay ([3H]-Compound A or [3H]-Compound B, membranes of HEK 293FT cells over-expressing hGPR119)
Settings: calculated from IC50 by Cheng-Prusoff; each line is a separate determination
Experimental: HEK 293FT cells (Invitrogen, Carlsbad, Calif.) were grown in a shake flask in 293Freestyle medium (Invitrogen) supplemented with 50 microg/mL neomycin and 10 mM HEPES (37 C, 8% carbon dioxide, shaking). The cells were centrifuged gently (approximately 500×g, 10 minutes) and the pellet resuspended in a mixture of Dulbecco's PBS(minus Mg++/−Ca++) supplemented with 18% fetal bovine serum (Sigma Aldrich) and P1 virus such that the multiplicity of infection (MOI) was 10 and the final cell density was 1.3×10^6/mL (total volume 2.5 liters). The cells were transferred to a 5 liter Wave Bioreactor Wavebag (Wave Technologies, MA) and incubated for 4 hours at 27 degrees Celsius (17 rocks/min, 7 degrees platform angle); at the end of the incubation period, an equal volume(2.5 liters) of 293Freestyle medium supplemented with 30 mM sodium butyrate (Sigma Aldrich) was added (final concentration=15 mM), and the cells were grown for 20 hours (37 degrees Celsius, 8% CO2 [0.2 liters/min}, 25 rocks/minute, 7 degrees platform angle). […]
The frozen cells were thawed on ice and centrifuged at 700×g (1400 rpm) for 10 minutes at 4 degrees Celsius. […] The protein concentration was determined using the Pierce BCA protein assay kit (Pierce reagents A #23223 and B #23224). […]

Row | Compound | Ki [nM]
1 | Cc1c(O[C@@H]2[C@@H]3COC[C@H]2CN(C(=O)OC2(C)CC2)C3)ncnc1N1CCc2ncccc21 [Example 28, 1-Methylcyclopropyl (9-syn)-9-{[6-(2,3-dihydro-1H-pyrrolo[3,2-b]pyridin-1-yl)-5-methylpyrimidin-4-yl]oxy}-3-oxa-7-azabicyclo[3.3.1]nonane-7-carboxylate] | 45.8
2 | Cc1c(O[C@@H]2[C@@H]3COC[C@H]2CN(C(=O)OC(C)C)C3)ncnc1N1CCc2cc(S(C)(=O)=O)ccc21 [Example 23, Isopropyl (9-syn)-9-({5-methyl-6-[5-(methylsulfonyl)-2,3-dihydro-1H-indol-1-yl]pyrimidin-4-yl}oxy)-3-oxa-7-azabicyclo[3.3.1]nonane-7-carboxylate] | 130
